ChEMBL document CHEMBL1687705, “Design, Synthesis, and in Vitro Evaluation of Novel Aminomethyl-pyridines as DPP-4 Inhibitors” (ACS Med Chem Lett, 2010)
pIC50, pKi: −log10 of the molar value.

Key:
Dipeptidyl peptidase 4 = Dipeptidyl peptidase 4 (Homo sapiens, UniProt P27487); assay: Inhibition of human recombinant DPP4 assessed as Gly-Pro-pNA chromogenic substrate cleavage for 16 mins preincubated with compound for 10 mins before addition of chromogenic substrate
HeLa [1] = assay: Cytotoxicity against human HeLa cells; type: functional; details: read-out: LC50 (the source's name)
HeLa [2] = assay: Cytotoxicity against human HeLa cells at 10 uM; type: functional, cell-based
Dipeptidyl peptidase 8 = Dipeptidyl peptidase 8 (Homo sapiens, UniProt Q6V1X1); assay: Inhibition of human recombinant DPP8 assessed as Gly-Pro-pNA chromogenic substrate cleavage for 16 mins preincubated with compound for 10 mins before addition of chromogenic substrate
Homo sapiens = species: Homo sapiens; assay: Selectivity ratio of IC50 for human recombinant DPP8 to IC50 for human recombinant DPP4

Dipeptidyl peptidase 8, sequence (Q6V1X1 whole entry): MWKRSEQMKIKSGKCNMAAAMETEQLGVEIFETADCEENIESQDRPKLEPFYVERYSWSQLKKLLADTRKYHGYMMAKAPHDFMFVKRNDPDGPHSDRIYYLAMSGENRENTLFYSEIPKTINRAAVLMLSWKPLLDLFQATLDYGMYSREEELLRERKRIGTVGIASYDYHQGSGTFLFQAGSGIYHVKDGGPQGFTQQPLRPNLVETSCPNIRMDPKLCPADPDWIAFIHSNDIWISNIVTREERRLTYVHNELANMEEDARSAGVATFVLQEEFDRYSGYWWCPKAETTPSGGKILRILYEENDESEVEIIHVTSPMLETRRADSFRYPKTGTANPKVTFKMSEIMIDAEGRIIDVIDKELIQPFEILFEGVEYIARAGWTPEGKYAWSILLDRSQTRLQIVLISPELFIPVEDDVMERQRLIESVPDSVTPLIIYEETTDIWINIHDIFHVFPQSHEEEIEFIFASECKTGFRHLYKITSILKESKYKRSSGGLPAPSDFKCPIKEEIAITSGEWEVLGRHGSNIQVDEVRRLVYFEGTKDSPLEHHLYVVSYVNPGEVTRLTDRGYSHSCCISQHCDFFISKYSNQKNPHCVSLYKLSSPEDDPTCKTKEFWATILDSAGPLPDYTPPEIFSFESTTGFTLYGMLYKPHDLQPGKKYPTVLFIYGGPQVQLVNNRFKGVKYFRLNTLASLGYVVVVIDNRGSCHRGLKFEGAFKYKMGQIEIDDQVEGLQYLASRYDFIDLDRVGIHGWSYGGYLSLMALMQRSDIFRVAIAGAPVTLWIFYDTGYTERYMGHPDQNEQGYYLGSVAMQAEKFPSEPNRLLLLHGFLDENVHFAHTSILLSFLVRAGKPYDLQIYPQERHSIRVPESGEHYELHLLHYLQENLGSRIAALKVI
Dipeptidyl peptidase 4, sequence (P27487 whole entry): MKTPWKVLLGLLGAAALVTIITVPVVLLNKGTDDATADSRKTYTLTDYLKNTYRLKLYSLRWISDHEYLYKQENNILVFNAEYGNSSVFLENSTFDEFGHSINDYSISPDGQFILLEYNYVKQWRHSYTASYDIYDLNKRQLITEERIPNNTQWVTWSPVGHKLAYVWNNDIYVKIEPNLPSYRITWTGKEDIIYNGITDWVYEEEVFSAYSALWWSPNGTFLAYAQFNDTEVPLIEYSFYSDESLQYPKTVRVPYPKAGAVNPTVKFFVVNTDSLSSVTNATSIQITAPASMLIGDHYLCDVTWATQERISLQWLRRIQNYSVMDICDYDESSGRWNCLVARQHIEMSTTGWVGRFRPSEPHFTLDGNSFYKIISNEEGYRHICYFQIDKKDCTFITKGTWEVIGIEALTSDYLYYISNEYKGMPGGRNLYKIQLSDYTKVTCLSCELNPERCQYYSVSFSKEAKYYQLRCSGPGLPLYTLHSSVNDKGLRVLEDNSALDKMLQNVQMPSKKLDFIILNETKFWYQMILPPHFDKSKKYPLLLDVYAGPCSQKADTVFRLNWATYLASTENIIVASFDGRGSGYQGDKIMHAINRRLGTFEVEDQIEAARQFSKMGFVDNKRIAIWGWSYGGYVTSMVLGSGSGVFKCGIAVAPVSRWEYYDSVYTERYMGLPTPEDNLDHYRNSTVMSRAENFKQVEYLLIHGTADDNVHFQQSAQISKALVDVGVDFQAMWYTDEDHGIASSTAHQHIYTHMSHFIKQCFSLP

Structure (SMILES)	pIC50 (Dipeptidyl peptidase 4)	CC50 (HeLa [1])	Activity (HeLa [2])	further results
Cc1nc(C(N)=O)cc(-c2ccc(Cl)cc2Cl)c1CN	–	> 10 µM	Not toxic	–
Cc1nc(C(=O)NCC#N)cc(-c2ccc(Cl)cc2Cl)c1CN	–	> 10 µM	Not toxic	–
Cc1nc(C(=O)N2CCCC2)cc(-c2ccc(F)cc2)c1CN	–	> 10 µM	–	pKi (Dipeptidyl peptidase 8): 3.86
Cc1nc(CN)cc(-c2ccc(Cl)cc2)c1C(N)=O	< 4.30	–	–	–
Cc1nc(C(=O)NC2CC2)cc(-c2ccc(F)cc2)c1CN	–	> 10 µM	–	pKi (Dipeptidyl peptidase 8): 3.97
Cc1nc(C(=O)N2CCOCC2)cc(-c2ccc(Cl)cc2Cl)c1CN	> 4.30	–	Not toxic	–
Cc1nc(C(=O)NC2CC2)cc(-c2ccc(F)cc2F)c1CN	–	> 10 µM	–	pKi (Dipeptidyl peptidase 8): 3.74
Cc1cc(NC(=O)c2cc(-c3ccc(F)cc3F)c(CN)c(C)n2)no1	–	> 10 µM	–	pKi (Dipeptidyl peptidase 8): 3.75
CNC(=O)c1cc(-c2ccc(Cl)cc2Cl)c(CN)c(C)n1	–	> 10 µM	Not toxic	–
Cc1nc(C(=O)N2CCCC2)cc(-c2ccc(Cl)cc2Cl)c1CN	–	> 10 µM	Not toxic	–

Further lines, with some results ahead:

pIC50 (Dipeptidyl peptidase 4)	Structure (SMILES)	CC50 (HeLa [1])	Activity (HeLa [2])	further results
> 4.30	Cc1nc(C(=O)O)cc(-c2ccc(F)cc2F)c1CN	–	–	–
> 4.30	COC(=O)CNC(=O)c1cc(-c2ccc(F)cc2F)c(CN)c(C)n1	–	–	–
> 4.30	Cc1nc(C(=O)N2CCOCC2)cc(-c2ccc(F)cc2F)c1CN	–	–	–
> 4.30	Cc1nc(C(=O)NC2CC2)cc(-c2ccccc2F)c1CN	–	–	–
< 4.30	Cc1nc(CN)cc(-c2ccccc2F)c1C(N)=O	–	–	–
> 4.30	Cc1nc(C(=O)N2CCCC2)cc(-c2ccccc2F)c1CN	–	–	–
> 4.30	Cc1nc(C(=O)N2CCCC2)cc(-c2ccc(F)cc2F)c1CN	–	–	–
> 4.30	CNC(=O)c1cc(-c2ccc(Cl)cc2)c(CN)c(C)n1	–	–	–
> 4.30	Cc1nc(C(=O)N2CCOCC2)cc(-c2ccc(F)cc2)c1CN	–	–	–
> 4.30	Cc1nc(C(=O)NCC(N)=O)cc(-c2ccc(Cl)cc2Cl)c1CN	–	Not toxic	Ratio IC50 (Homo sapiens): 6600
> 4.30	Cc1nc(C(=O)O)cc(-c2ccc(F)cc2)c1CN	–	–	–
> 4.30	Cc1nc(C(=O)NC2CC2)cc(-c2ccc(Cl)cc2Cl)c1CN	–	Not toxic	–
> 4.30	Cc1nc(C(N)=O)cc(-c2ccccc2F)c1CN	–	–	–
